Measured values published in US20040138137A1, “Alloferons - immunomodulatory peptides” (Entopharm Co., Ltd., priority 1999, published 2004).
Read-outs that look alike come from different tables or passages of the source. Marks after values point to notes of the source that are not given here. Ends that are not written are not given here.

Legend:
[1] = therapeutic and 10-fold administration
[2] = Toxicity evaluation, panel of in vitro and in vivo models (overall statement); details: in vivo and in vitro studies
Protocol: The toxicity of alloferon was tested using a panel of in vitro and in vivo models.

[3] = Subacute and chronic toxicity in rats; assay type: in vivo; details: 0.2, 2 and 20 mg/kg once a day during 90 days
[4] = Acute toxicity in mice; assay type: in vivo; details: 500-6000 mg/kg in mice
[5] = therapeutic and 10-fold administration; remark: listed apart in the source
[6] = tested on: fat cells; details: therapeutic and 10-fold administration
[7] = tested on: mouse spleen lymphocytes; K562 human leukemia cells
Protocol: (§1) H3-uridine labeled K562 human leukemia cells were used as targets for a cytotoxic lymphocytes' attack. […] Then the proportion of killed and normal target cells and the corresponding cytotoxicity indices were determined in control and experimental groups.

[8] = Acute toxicity in rats; assay type: in vivo
[9] = tested on: human peripheral blood lymphocytes; K562 cancer cells; assay: Cytotoxic activity of human peripheral blood lymphocytes against K562 cancer cells
Protocol: as §1
(§2) The lymphocytes were diluted up to 2×10^6 cells/ml and immediately used for the cytotoxicity analysis.

[10] = subcutaneous injection 1.5 and 15 mg/kg into pregnant rats
[11] = tested on: peripheral blood lymphocytes (PBL) in cancer patients; A431; assay: PBL cytotoxicity in cancer patients, A431 targets; details: for Cytotoxicity index, %: A431, lymphocyte:target 20:1
Protocol: as §1, §2
(§3) Two kinds of target cells were used in the study simultaneously: the K562 cell line originated from erythromyeloid leukemia cells and the A431 cell line originated from the solid colorectal tumor. The proportion of lymphocytes and target cells (E/T ratio) in the trial was 20:1.

[12] = therapeutic and 10-fold administration; remark: listed apart in the source
[13] = tested on: mouse bone marrow cells; details: single dose 0.5 and 15 mg/kg and fivefold dose 0.5 mg/kg
[14] = tested on: Salmonella tiphimurium; assay: Ames test; assay type: cell-based; details: 0.1-1000 microgram/Petri dish; 3 test line
[15] = tested on: mouse germ cells; assay: Dominant lethal mutations in the mouse germ cells; assay type: in vivo; details: 15 mg/kg
[16] = tested on: E. coli test-line PQ37; assay: DNA SOS-reparation; assay type: cell-based
[17] = tested on: peripheral blood lymphocytes (PBL) in healthy donors; K562 cell line; assay: PBL cytotoxicity in healthy donors, K562 targets; details: for Cytotoxicity index, M ± m, %: healthy donor 16, K562, 5 ng/ml, lymphocyte:target 20:1, control −3.5 ± 7.4; for Donors responding by statistically approved increase of cytotoxic activity against K562 or A431: out of 17 healthy donors
Protocol: as §1, §2, §3

[18] = tested on: peripheral blood lymphocytes (PBL) in cancer patients; K562; details: 18 cancer patients; for Positive responses proportion, K562 or A531: either target
Protocol: as §1, §2, §3

[19] = tested on: peripheral blood lymphocytes (PBL) in healthy donors; A431 cell line; details: 17 healthy donors
Protocol: as §1, §2, §3

[20] = tested on: human peripheral blood lymphocytes; A431 tumor cells; assay: Cytotoxic activity of human PBL against A431 tumor cells, alloferon 1 analogs; details: 5 ng/ml; A431 targets; control −6.0 ± 8.1
Protocol: The mononuclear fraction isolated from the blood of healthy donors and target cell of the A431 cell line were co-incubated in the presence of one of the preparations: alloferon 1, alloferon 3, alloferon 4 or interferon-alpha 2b (positive control). The preparation's concentration in all cases was 5 ng/ml. Cytotoxicity index excess over the untreated control was used as the efficacy criterion.

[21] = tested on: human influenza virus A strain A/Aichi/2/68 (cerotype H3N2); assay type: in vivo, mice
[22] = patient 11, Uterus cancer, control 93.3 ± 1.0
[23] = patient 14, Non-Hodgkin lymphoma, control −40.0 ± 20.5
[24] = 17 healthy donors, K562 or A431

Molecule: HGVSGHGQHGVHG [Alloferon 1]
- Anaphylactic shock (10-fold therapeutic dose, registered in 1 male, 12 guinea pigs): dosage. Minimal response (short term unrest, nose
- Anaphylactic shock (therapeutic dosage, guinea pigs): No signs of anaphylaxy were found at therapeutic
- Conjunctive probe [1]: The reaction was not found under alloferon
- Overall toxicity (words) ([2]; listed as Alloferon): practically nontoxic
- Overall toxicity (words) ([2]; listed as alloferon): No signs of acute or chronic toxicity
- Overall toxicity (words) ([2]; listed as alloferon 1): Neither an acute nor a chronic toxicity
- Subacute and chronic toxicity, mortality [3]: None animal died during 90 day period.
- Subacute and chronic toxicity, physiological, hematological, biochemical, pathomorphological and histological data [3]: testicles, ovary) data did not show negative changes
- Acute toxicity, animal growth, feeding, macroscopical structure of organs, injection place [4]: highest dose. No changes in animal growth, feeding,
- Acute toxicity, mortality ([4]; single subcutaneous and intragastric administration): Mortality was not registered in any dose including
- Reaction of delayed hypersensitivity [5]: The reaction was not found under alloferon
- Indirect reaction of fat cells degranulation [6]: Fat cells degranulation rate was not changed under
- Effective in vitro concentration, stimulation of mouse spleen lymphocytes' cytotoxic activity [7]: 0.05 to 50 ng/mL
- Acute toxicity, animal growth, feeding, macroscopical structure of organs, injection place ([8]; 300-5000 mg/kg in rats): highest dose. No changes in animal growth, feeding,
- Toxic/therapeutic dose ratio ([8]; rats): ratio >35700 times
- Acute toxicity, mortality ([8]; single subcutaneous and intragastric administration, 300-5000 mg/kg in rats): Mortality was not registered in any dose including
- Concentration from which PBLs' cytotoxicity against K562 was significantly increased [9]: ≥ 0.0005 nanogram/ml
- Effective in vitro concentration, stimulation of human peripheral blood lymphocytes' cytotoxic activity [9]: 0.0005 to 500 ng/mL
- Embriotoxicity and influence on the reproductive function [10]: Alloferon administration did not cause negative
- Effective in vitro concentration, stimulation of peripheral blood lymphocytes' cytotoxic activity in cancer patients ([11]; cancer patients): 5 ng/mL
- Cytotoxicity index, % [11, 22]: 94.3 ± 0.4%
- Cytotoxicity index, % [11, 23]: 15.3 ± 4.8 %
- Immune complexes reaction [12]: The reaction was not found under alloferon
- Chromosome aberrations in the mouse bone marrow cells [13]: fivefold dose 0.5 mg/kg did not induce chromosome
- Ames test, gene mutations [14]: microgram/Petri dish did not induce gene mutations
- Dominant lethal mutations in the mouse germ cells [15]: Alloferon in the dose 15 mg/kg did not induce
- DNA SOS-reparation, DNA-damaging activity [16]: Alloferon has no DNA-damaging activity in the E. coli
- Cytotoxicity index, M ± m, % [17]: 18.5 ± 1.7 %
- Donors responding by statistically approved increase of cytotoxic activity against K562 or A431 [17]: 10 donors

Molecule: Interferon-alpha 2b
- Positive responses coincidence: Donors selectively sensitive to the preparation ([18]; K562 or A431): 4/18 = 22%
- Positive responses coincidence: Interferon and alloferon sensitive donors ([18]; K562 or A431): 7/18 = 38%
- Positive responses proportion, K562 or A531 ([18]; listed as Interferon): 10/18 = 56%
- Positive responses proportion, K562 or A531 ([18]; listed as interferon): 56%
- Positive responses proportion, K562 ([18]; positive response = statistically significant increase of lymphocyte cytotoxicity index): 6/18 = 33%
- Positive responses proportion, A431 [19]: 4/17 = 24%
- Efficacy compared to alloferon at 0.05-0.5 ng/ml ([9]; 5 ng/ml): less effective
- Positive responses proportion, A431 ([11]; 18 cancer patients): 8/18 = 44%
- Cytotoxicity index, % [11, 22]: 93.5 ± 0.9%
- Cytotoxicity index, % [11, 23]: 26.0 ± 8.9 %
- Positive responses coincidence: Donors selectively sensitive to the preparation [17, 24]: 1/17 = 6%
- Positive responses coincidence: Interferon and alloferon sensitive donors [17, 24]: 9/17 = 53%
- Positive responses proportion, K562 or A531 ([17]; 17 healthy donors, either target): 10/17 = 59%
- Positive responses proportion, K562 ([17]; 17 healthy donors, positive response = statistically significant increase of lymphocyte cytotoxicity index): 7/17 = 41%
- Cytotoxicity index, M ± m, % [17]: 5.0 ± 4.7%
- Donors responding by statistically approved increase of cytotoxic activity against K562 or A431 [17]: 10 donors

Molecule: VSGHGQHGVH [Alloferon 3]
- Average cytotoxicity index, M ± m, % [20]: 60.2 ± 2.7%

Molecule: CC(N)C12CC3CC(CC(C3)C1)C2 (stereo not drawn) [Remantadin]
- Mortality 10 days after virus inoculation, % ([21]; 1000 microgram per mouse per os, control 65): 5*** %
- Protection from lethal pulmonary lesions caused by the influenza virus ([21]; mouse, in vivo, sc): effectively protected
